Laboratory results taken from patent publication US20060211698A1, “Bicyclic heteroaryl derivatives for treating viruses” (Genelabs, Inc., priority 2005, published 2006).

target: T1, HCV-NS5b (Hepatitis C virus genotype 1b, UniProt Q9WMX2); experiment: HCV-NS5b Enzyme Assay; format: biochemical; settings: 1 μM test compound; incorporation of [3H]-UTP, 37° C., 2 hours
T1 construct: The cloned fragment was missing the C terminus 21 amino acid residues; (His)6 (C); made in house; host or cells: XL-1 cells (E. coli)
From the text: The coding sequence of NS5b protein was cloned by PCR from pFKI389luc/NS3-3′/ET as described by Lohmann, V., et al. (1999) Science 285, 110-113 using the following primers: • […] (SEQ. ID. NO. 1) • […] (SEQ. ID. NO. 2)
The cloned fragment was missing the C terminus 21 amino acid residues. The cloned fragment is inserted into an IPTG-inducible expression plasmid that provides an epitope tag (His)6 at the carboxy terminus of the protein.
The recombinant enzyme was expressed in XL-1 cells and after induction of expression, the protein was purified using affinity chromatography on a nickel-NTA column. Storage condition is 10 mM Tris-HCl pH 7.5, 50 mM NaCl, 0.1 mM EDTA, 1 mM DTT, 20% glycerol at −20° C.
The polymerase activity was assayed by measuring incorporation of radiolabeled UTP into a RNA product using a biotinylated, heteropolymeric template, which includes a portion of the HCV genome. Typically, the assay mixture […] contains 10 mM Tris-HCl (pH 7.5), 5 mM MgCl2, 0.2 mM EDTA, 10 mM KCl, 1 unit/μL RNAsin. 1 mM DTT, 10 μM each of NTP, including [^3H]-UTP, and 10 ng/μL biotinylated heteropolymeric template. 20× test compound in 2 μl's was then added as a 100% DMSO solution to achieve a final DMSO concentration of 5%. For IC50 determination a 10-point dose response was used. The compounds were serial diluted 2-fold […]. Typically for IC50's, compounds were tested starting at 50 uM or 2 μm depending on the potency. Reactions were started with addition of 10×NS5B in 4 μl's and allowed to incubate at 37° C. for 2 hours. Reactions were quenched with 8 μL of 100 mM EDTA and reaction mixtures (30 μL) were transferred to streptavidin-coated scintillation proximity microtiter plates (FlashPlates) and incubated at 4° C. overnight. Incorporation of radioactivity was determined by scintillation counting (cpm). The % Inhibition at a particular concentration was determined using the following equation, % Inhibition=100−[100*(cpm with inhibitor−bg)/(cpm with no inhibitor−bg)] where bg was the background with no enzyme.

% inhibition @ 1 μM [%]	inhibition at 1 µM [%]	Compound
98.0	–	O=C(O)c1ccc2c(C3CCCCC3)c(-c3ccc4nc(-c5ccc(Cl)s5)ccc4c3)n(CC(=O)N3CCOCC3)c2c1 [Compound 225, 1-[N-morpholinocarbonylmethyl]-2-[2-(5-chlorothien-2-yl)quinolin-6-yl]-3-cyclohexyl-1H-indole-6-carboxylic acid]
94.5	–	O=C(O)c1ccc2c(C3CCCCC3)c(-c3ccc4nc(-c5cccnc5)ccc4c3)n(CC(=O)N3CCOCC3)c2c1 [Compound 226, 1-[N-morpholinocarbonylmethyl]-2-[2-pyrid-3-ylquinolin-6-yl]-3-cyclohexyl-1H-indole-6-carboxylic acid]
98.4	–	O=C(O)c1ccc2c(C3CCCCC3)c(-c3ccc4nc(-c5nccs5)ccc4c3)n(CC(=O)N3CCOCC3)c2c1 [Compound 227, 1-[N-morpholinocarbonylmethyl]-2-[2-thiazol-2-ylquinolin-6-yl]-3-cyclohexyl-1H-indole-6-carboxylic acid]
96.2	–	O=C(O)c1ccc2c(C3CCCCC3)c(-c3ccc4nc(-c5ccsc5)ccc4c3)n(CC(=O)N3CCOCC3)c2c1 [Compound 228, 1-[N-morpholinocarbonylmethyl]-2-[2-thien-3-ylquinolin-6-yl]-3-cyclohexyl-1H-indole-6-carboxylic acid]
–	96.5	Cc1ccsc1-c1ccc2cc(-c3c(C4CCCCC4)c4ccc(C(=O)O)cc4n3CC(=O)N3CCOCC3)ccc2n1 [Compound 229, 3-Cyclohexyl-2-[2-(3-methyl-thiophen-2-yl)-quinolin-6-yl]-1-(2-morpholin-4-yl-2-oxo-ethyl)-1H-indole-6-carboxylic acid]
–	92.2	Cc1cc(-c2ccc3cc(-c4c(C5CCCCC5)c5ccc(C(=O)O)cc5n4CC(=O)N4CCOCC4)ccc3n2)c(C)o1 [Compound 230, 3-Cyclohexyl-2-[2-(2,5-dimethyl-furan-3-yl)-quinolin-6-yl]-1-(2-morpholin-4-yl-2-oxo-ethyl)-1H-indole-6-carboxylic acid]
–	98.7	Cc1cccc(-c2ccc3cc(-c4c(C5CCCCC5)c5ccc(C(=O)O)cc5n4CC(=O)N4CCOCC4)ccc3n2)c1 [Compound 231, 3-Cyclohexyl-1-(2-morpholin-4-yl-2-oxo-ethyl)-2-(2-m-tolyl-quinolin-6-yl)-1H-indole-6-carboxylic acid]
–	97.5	Cc1ccccc1-c1ccc2cc(-c3c(C4CCCCC4)c4ccc(C(=O)O)cc4n3CC(=O)N3CCOCC3)ccc2n1 [Compound 232, 3-Cyclohexyl-1-(2-morpholin-4-yl-2-oxo-ethyl)-2-(2-o-tolyl-quinolin-6-yl)-1H-indole-6-carboxylic acid]
–	95.7	COc1ccccc1-c1ccc2cc(-c3c(C4CCCCC4)c4ccc(C(=O)O)cc4n3CC(=O)N3CCOCC3)ccc2n1 [Compound 233, 3-Cyclohexyl-2-[2-(2-methoxy-phenyl)-quinolin-6-yl]-1-(2-morpholin-4-yl-2-oxo-ethyl)-1H-indole-6-carboxylic acid]
–	97.4	Cc1csc(-c2ccc3cc(-c4c(C5CCCCC5)c5ccc(C(=O)O)cc5n4CC(=O)N4CCOCC4)ccc3n2)c1 [Compound 234, 3-Cyclohexyl-2-[2-(4-methyl-thiophen-2-yl)-quinolin-6-yl]-1-(2-morpholin-4-yl-2-oxo-ethyl)-1H-indole-6-carboxylic acid]
–	95.5	Cc1ccc(-c2ccc3cc(-c4c(C5CCCCC5)c5ccc(C(=O)O)cc5n4CC(=O)N4CCOCC4)ccc3n2)s1 [Compound 235, 3-Cyclohexyl-2-[2-(5-methyl-thiophen-2-yl)-quinolin-6-yl]-1-(2-morpholin-4-yl-2-oxo-ethyl)-1H-indole-6-carboxylic acid]
–	92.5	Cc1nc(C)c(-c2ccc3cc(-c4c(C5CCCCC5)c5ccc(C(=O)O)cc5n4CC(=O)N4CCC(O)CC4)ccc3n2)s1 [Compound 236, 3-Cyclohexyl-2-[2-(2,4-dimethyl-thiazol-5-yl)-quinolin-6-yl]-1-[2-(4-hydroxy-piperidin-1-yl)-2-oxo-ethyl]-1H-indole-6-carboxylic acid]
